Publication PMC6753678, “Fueling Open Innovation for Malaria Transmission-Blocking Drugs: Hundreds of Molecules Targeting Early Parasite Mosquito Stages” (Frontiers in Microbiology, 2019)
Where two headings read alike, the source gives them in different places.

Key:
[1] = system: P. falciparum female gametocytes; test: P. falciparum female gametogenesis assay (Pf FGAA); settings: 1: YES; 0: NO
HepG2 cells = settings: cited from earlier work
[2] = system: P. falciparum female gametocytes; set-up: method as in Miguel-Blanco et al 2017; settings: TCAMS library screen; ref Miguel-Blanco et al 2017; read-out: Pf FGAA IC50; cited from earlier work
[3] = HepG2 value reported with Pf FGAA screen, ref Miguel-Blanco et al 2017

Compound | Is compound selective in assay? Pf FGAA active? [1] | HepG2 cytoxicity (Pf FGAA screen) (HepG2 cells; [3]) [µM] | IC50 [2] [µM] | HepG2 cytoxicity (Pf FGAA screen) (HepG2 cells) [µM]
Cl.Fc1cc(Cl)ccc1Nc1ccnc2cc(-c3ccc(CN4CCNCC4)o3)ccc12 [TCMDC-138394] | 0 (0: NO) | 12.05 | 1.91 | –
CC(C)(C)c1ccc(CN2CCC(CNC(=O)c3cc(-c4cccc(F)c4)cs3)C2)cc1.O=C(O)C(F)(F)F (stereo not drawn) [TCMDC-134444] | 0 (0: NO) | 6.61 | 1.32 | –
O=C(Nc1cc(C(F)(F)F)cc(C(F)(F)F)c1)Nc1ccc(Cl)c(Cl)c1 [TCMDC-125592] | 0 (0: NO) | 3.07 | 1.43 | –
C[C@H](Cc1ccc(OCCCCCCOc2ccc(C[C@@H](C)N[C@H](C)c3ccccc3)cc2)cc1)NC[C@H](O)c1cccc(Cl)c1.Cl [TCMDC-131564] | 0 (0: NO) | 4.28 | 0.72 | –
COc1cc(CNCCCCCCNCc2cc(OC)c3ccccc3c2OC)c(OC)c2ccccc12.CS(=O)(=O)O [TCMDC-137502] | 0 (0: NO) | 3.67 | 1.67 | –
Oc1c(C(Nc2ccccn2)c2ccc(Cl)cc2Cl)ccc2cccnc12 (stereo not drawn) [TCMDC-125559] | 1 (1: YES) | 12.74 | 1.14 | –
CCCN(CCC)CCCN(CCCN(CCC)CCC)c1cc(C)nc(Nc2ccc3cc(Br)ccc3c2)n1.Cl [TCMDC-138006] | 0 (0: NO) | 3.43 | 0.99 | –
O=C(O)C(F)(F)F.O=S(=O)(NCCN1CCCC1)c1ccc(-c2ccc(CNC3Cc4ccccc4C3)cc2)s1 [TCMDC-132234] | 0 (0: NO) | 5.83 | 2.27 | –
COc1ccc(CNC2Cc3ccccc3C2)cc1-c1ccc(S(=O)(=O)NCCN2CCCC2)s1.O=C(O)C(F)(F)F [TCMDC-132258] | 0 (0: NO) | 5.31 | 1.39 | –
Cc1c2ccncc2c(C)c2c1[nH]c1cc(Cc3ccccc3)c(O)cc12 [TCMDC-132053] | 0 (0: NO) | 1.23 | 1.09 | –
CCCCSc1c(CNCCCCCCNCc2ccc3ccccc3c2SCCCC)ccc2ccccc12.CS(=O)(=O)O [TCMDC-137825] | 0 (0: NO) | 2.76 | 0.97 | –
COc1cc2nc(N3CCC(CNC(=O)c4ccc(-c5ccc(-c6noc(C)n6)cc5C)cc4)CC3)nc(N)c2cc1OC [TCMDC-138155] | 0 (0: NO) | 7.62 | 1.68 | –
CN1CCC(N2CCN(Cc3cccc(-c4ccc(-c5nc6cc(C(F)(F)F)ccc6[nH]5)cc4)c3)CC2)CC1.O=C(O)C(F)(F)F [TCMDC-133842] | 0 (0: NO) | 2.44 | 1.09 | –
CC(Nc1cc(-c2ccccn2)nc(-c2ccccn2)n1)c1ccccc1 (stereo not drawn) [TCMDC-125420] | 1 (1: YES) | 6.18 | 0.21 | –
CCc1c(CCNCCCCCNCCc2ccc(OC)c(OC)c2CC)ccc(OC)c1OC.Cl [TCMDC-132064] | 0 (0: NO) | 4.68 | 2.05 | –
Cc1cc(I)ccc1Nc1nc2nonc2nc1Nc1ccc(I)cc1C [TCMDC-124083] | 0 (0: NO) | 0.93 | 1.08 | –
CCc1c(CCNCCCCCCNCCc2ccc3c(c2C)OCO3)ccc2c1OCO2.Cl [TCMDC-132093] | 0 (0: NO) | 3.89 | 1.02 | –
CN(C)CCCNCc1cn(S(=O)(=O)c2ccccc2Cl)c2ccccc12.Cl [TCMDC-136302] | 0 (0: NO) | 11.78 | 1.84 | –
O=C(c1ccc([N+](=O)[O-])o1)N1CCN(c2nc3c(F)cc(F)cc3s2)CC1 [TCMDC-125149] | 1 (1: YES) | >100 | 1.31 | –
Clc1ccc(-c2csc3ncnc(Cl)c23)cc1 [TCMDC-123811] | 1 (1: YES) | 94.46 | 1.57 | –
COc1ccc(CNC2CCN(C)CC2)cc1-c1ccc(S(=O)(=O)NCc2ccccc2)s1.O=C(O)C(F)(F)F [TCMDC-132253] | 0 (0: NO) | 5.50 | 1.75 | –
Cc1ccc(C)c2sc(N3CCN(C(=O)c4ccc([N+](=O)[O-])o4)CC3)nc12 [TCMDC-124315] | 1 (1: YES) | 37.65 | 1.12 | –
COc1cc2c(OC)cccc2cc1CNCCCCCCNCc1cc2cccc(OC)c2cc1OC.CS(=O)(=O)O [TCMDC-137945] | 0 (0: NO) | 4.90 | 1.82 | –
O=C(Nc1nc(-c2ccccn2)cs1)c1ccc(Br)s1 [TCMDC-123868] | 1 (1: YES) | 37.44 | 1.16 | –
Cl.N#Cc1c(F)cc(N2CCC(NCC[C@H](N)Cc3ccc(F)c(F)c3)CC2)cc1F [TCMDC-132121] | 0 (0: NO) | – | 0.73 | 4.58
CCOc1ccc(-n2nc3c(Cl)nnc(-c4ccccc4)c3c2-c2ccccc2)cc1 [TCMDC-123899] | 1 (1: YES) | >100 | 0.94 | –
O=C(O)C(F)(F)F.O=c1[nH]ccc2nc(N[C@@H]3CCNC3)nc(Nc3cc(Cl)cc(Cl)c3)c12 [TCMDC-135052] | 0 (0: NO) | 4.79 | 0.74 | –
CCN(CCNS(C)(=O)=O)c1ccc(N)c(C)c1.O.O=S(=O)(O)O [TCMDC-125836] | 1 (1: YES) | 26.14 | 1.14 | –
